Assay results from US11666600B2, “Methods for culturing and/or differentiating hematopoietic stem cells into progenitors and uses thereof” (HEMA-QUEBEC, priority 2015, dated 2023).
“And” between values parts separate entries of the source, which are not always exact repeats. Identical values can stand only once.

Key:
[1] = tested on: aryl hydrocarbon receptor (AhR) pathway; conditions: Fares et al., 2014; cited from earlier work
[2] = tested on: CD34+ cells from human umbilical cord blood; assay: Culture of cord blood CD34+ cells towards the megakaryocytic lineage (StemSpan ACF + BS1), flow cytometry; type: cell-based; conditions: for Percentage of cells bearing CD34+ / Percentage of cells bearing CD34+/CD41+ / Percentage of cells bearing CD34+/CD41− / Percentage of cells bearing CD41+ / Percentage of cells bearing CD41+/CD42+ / Percentage of cells bearing CD42+ / Percentage of cells bearing CD45RA+ / Percentage of cells bearing CD235+: ACF + BS1
Method: CD34+ cells were isolated from human umbilical cord blood by positive selection according to standard procedures. Purified CD34+ cells from either single units or pooled from several units of cord blood were seeded in 1 mL of the appropriate culture medium in 24-well plates at a density of approximately 10^5 cells/mL. Cells were maintained at a density of 10^5-10^6 cells/mL throughout the culture by dilution and/or medium replacement.
For culture and differentiation towards the megakaryocytic lineage, purified CD34+ cells were cultured in StemSpan™ ACF medium ([…]™ Technologies, Vancouver, BC, Canada) supplemented with antibiotics and the “BS1” cytokine cocktail described previously (Cortin et al, 2005), and cell counts were performed on days 6, 10, and 14.
Cell counts and viability were measured using the NucleoCounter NC-250™ Viability and Cell Count Assay system (ChemoMetec Inc., Davis, Calif.), according to the manufacturer's instructions.
Cell phenotypes were determined by flow cytometry on the indicated days using the following panel of labeled primary antibodies: CD34-FITC, CD45RA-APC, CD41a-APC, CD42b-PE, and CD235-PE.
CD34+ cells were isolated and cultured for differentiation towards the megakaryocytic lineage as generally described in Example 1.2. […] Flow cytometry was used to monitor the expansion of CD34+/CD41+ MKP cells over time, as described in Example 1.3.
More thorough cell phenotypic profiles of the CD34+ cells isolated and cultured in Example 2 were determined on days 6, 10 and 14 by flow cytometry as described in Example 1.3.

[3] = tested on: CD34+ cells from human umbilical cord blood; assay: CFU-MK assay (Megacult C) on cells grown in ACF + BS1; type: cell-based; conditions: 39° C. + PIC 35 nM; FIG. 2
Method: Aliquots of cells grown in StemSpan™ ACF+BS1 culture medium were collected on the indicated days, and CFU-MK were determined using the Megacult™ C kit from […]™ Technologies, according to the manufacturer's instructions.

[4] = tested on: Human bone marrow CD34+ cells; assay: Expansion of CD34+/CD41+ megakaryocytic progenitors from bone marrow CD34+ cells; type: cell-based; conditions: 39° C. + PIC 35 nM; 14 days; SFEM + BS1; FIG. 6
Method: (§1) Human bone marrow and G-CSF-mobilized peripheral blood CD34+ cells were purchased from AllCells.
(§2) Human CD34+-enriched cells (purity 90%) were seeded in 24-well plates at 100 000 cells/mL in expansion medium consisting of either (1) StemSpan™ ACF (ACF; […] Technologies) supplemented with the OMPC cytokine cocktail (Robert et al., 2011), or (2) StemSpan™ SFEM ([…] Technologies) supplemented with the BS1 megakaryocyte expansion and differentiation cocktail (Cortin et al., 2005). OMPC consists of 35 ng/mL thrombopoietin (TPO; Feldan Therapeutics), 10 ng/mL stem cell factor (SCF; Peprotech), and 11 ng/mL human FMS-like tyrosine kinase 3 ligand (FLT3, Peprotech). […]
(§3) Cellular counts and viability were determined by adding Solution 18 (Acridine Orange and DAPI solution, ChemomMetec) and using NucleoCounter™ NC-250 for detection (ChemomMetec).
(§4) For cells expanded in conditions favoring differentiation towards the MK lineage, surface markers were detected using the following antibodies: CD34-FITC, CD41a-APC and CD42b-PE. […] All samples were analyzed on an Accuri™ C6 flow cytometer (BD Biosciences), and raw data were analyzed with FCS Express 5 Flow Research Edition software from at least 15 000 viable cell events acquired for each sample. […]
(§5) Cellular counts and viability were determined as described in Example 6.5.

[5] = tested on: Human G-CSF-mobilized peripheral blood CD34+ cells; assay: Expansion of CD34+/CD41+ megakaryocytic progenitors from mobilized peripheral blood CD34+ cells; type: cell-based; conditions: 39° C. + PIC 35 nM; 14 days; SFEM + BS1; FIG. 5
Method: as §1, §2, §3, §4, §5

Cl.Cn1nnc(-c2ccc3c(c2)[nH]c2nc(Cc4ccccc4)nc(N[C@H]4CC[C@H](N)CC4)c23)n1 [PIC, (1r,4r)-N1-(2-benzyl-7-(2-methyl-2H-tetrazol-5-yl)-9H-pyrimido[4,5-b]indol-4-yl)cyclohexane-1,4-diamine hydrochloride]
suppression of the aryl hydrocarbon receptor (AhR) pathway [1]: without acting as suppressors
purity of CD34+/CD41+ cells ([2]; 39° C. + PIC 35 nM, data not shown): above 40%
Percentage of cells bearing CD34+ ([2]; Day 6, 37° C. + PIC 35 nM): 98.38%
Percentage of cells bearing CD34+/CD41+ ([2]; Day 6, 37° C. + PIC 35 nM): 29.54%
Percentage of cells bearing CD34+/CD41− ([2]; Day 6, 37° C. + PIC 35 nM): 68.55%
Percentage of cells bearing CD41+ ([2]; Day 6, 37° C. + PIC 35 nM): 29.27%
Percentage of cells bearing CD41+/CD42+ ([2]; Day 6, 37° C. + PIC 35 nM): 1.71%
Percentage of cells bearing CD42+ ([2]; Day 6, 37° C. + PIC 35 nM): 2.48%
Percentage of cells bearing CD45RA+ ([2]; Day 6, 37° C. + PIC 35 nM): 71.55%
Percentage of cells bearing CD235+ ([2]; Day 6, 37° C. + PIC 35 nM): 11.67%
Percentage of cells bearing CD34+ ([2]; Day 6, 39° C. + PIC 35 nM): 97.19%
Percentage of cells bearing CD34+/CD41+ ([2]; Day 6, 39° C. + PIC 35 nM): 48.85%
Percentage of cells bearing CD34+/CD41− ([2]; Day 6, 39° C. + PIC 35 nM): 48.02%
Percentage of cells bearing CD41+ ([2]; Day 6, 39° C. + PIC 35 nM): 49.84%
Percentage of cells bearing CD41+/CD42+ ([2]; Day 6, 39° C. + PIC 35 nM): 7.95%
Percentage of cells bearing CD42+ ([2]; Day 6, 39° C. + PIC 35 nM): 8.31%
Percentage of cells bearing CD45RA+ ([2]; Day 6, 39° C. + PIC 35 nM): 58.97%
Percentage of cells bearing CD235+ ([2]; Day 6, 39° C. + PIC 35 nM): 19.51%
Percentage of cells bearing CD34+ ([2]; Day 10, 37° C. + PIC 35 nM): 84.39%
Percentage of cells bearing CD34+/CD41+ ([2]; Day 10, 37° C. + PIC 35 nM): 20.21%
Percentage of cells bearing CD34+/CD41− ([2]; Day 10, 37° C. + PIC 35 nM): 64.40%
Percentage of cells bearing CD41+ ([2]; Day 10, 37° C. + PIC 35 nM): 24.84%
Percentage of cells bearing CD41+/CD42+ ([2]; Day 10, 37° C. + PIC 35 nM): 1.30%
Percentage of cells bearing CD42+ ([2]; Day 10, 37° C. + PIC 35 nM): 2.55%
Percentage of cells bearing CD45RA+ ([2]; Day 10, 37° C. + PIC 35 nM): 76.43%
Percentage of cells bearing CD235+ ([2]; Day 10, 37° C. + PIC 35 nM): 7.45%
Percentage of cells bearing CD34+ ([2]; Day 10, 39° C. + PIC 35 nM): 87.29%
Percentage of cells bearing CD34+/CD41+ ([2]; Day 10, 39° C. + PIC 35 nM): 67.10%
Percentage of cells bearing CD34+/CD41− ([2]; Day 10, 39° C. + PIC 35 nM): 21.37%
Percentage of cells bearing CD41+ ([2]; Day 10, 39° C. + PIC 35 nM): 73.31%
Percentage of cells bearing CD41+/CD42+ ([2]; Day 10, 39° C. + PIC 35 nM): 17.09%
Percentage of cells bearing CD42+ ([2]; Day 10, 39° C. + PIC 35 nM): 17.30%
Percentage of cells bearing CD45RA+ ([2]; Day 10, 39° C. + PIC 35 nM): 46.94%
Percentage of cells bearing CD235+ ([2]; Day 10, 39° C. + PIC 35 nM): 14.40%
Percentage of cells bearing CD34+ ([2]; Day 14, 37° C. + PIC 35 nM): 69.53%
Percentage of cells bearing CD34+/CD41+ ([2]; Day 14, 37° C. + PIC 35 nM): 11% and 11.01%
Percentage of cells bearing CD34+/CD41− ([2]; Day 14, 37° C. + PIC 35 nM): 54.97%
Percentage of cells bearing CD41+ ([2]; Day 14, 37° C. + PIC 35 nM): 23.65%
Percentage of cells bearing CD42+ ([2]; Day 14, 37° C. + PIC 35 nM): 3.02%
Percentage of cells bearing CD45RA+ ([2]; Day 14, 37° C. + PIC 35 nM): 61.90%
Percentage of cells bearing CD235+ ([2]; Day 14, 37° C. + PIC 35 nM): 2.90%
Percentage of cells bearing CD34+ ([2]; Day 14, 39° C. + PIC 35 nM): 88.56%
Percentage of cells bearing CD34+/CD41+ ([2]; Day 14, 39° C. + PIC 35 nM): 76.5% and 76.46%
Percentage of cells bearing CD34+/CD41− ([2]; Day 14, 39° C. + PIC 35 nM): 10.25%
Percentage of cells bearing CD41+ ([2]; Day 14, 39° C. + PIC 35 nM): 87.90%
Percentage of cells bearing CD42+ ([2]; Day 14, 39° C. + PIC 35 nM): 27.09%
Percentage of cells bearing CD45RA+ ([2]; Day 14, 39° C. + PIC 35 nM): 27.09%
Percentage of cells bearing CD235+ ([2]; Day 14, 39° C. + PIC 35 nM): 12.61%
Percentage of cells bearing CD41+/CD42+ ([2]; Day 14, 39° C. + PIC 35 nM, hydrochloride): 27% and 27.04%
combined effect of mild hyperthermia and PIC on the number of CFU-MK [3]: synergized
combined use of mild hyperthermia and PIC on expansion of CD34+/CD41+ cells [4]: synergistic effect
combined use of mild hyperthermia and PIC on expansion of CD34+/CD41+ cells [5]: synergistic effect
